This is an account of results in PubChem BioAssay AID179 (DTP/NCI, 2004).

This assay deals with CEM cells HIV-1 protection, formazan growth assay. The assay can be described thus: NCI AIDS Antiviral Assay. To be noted: for IC50: measured here: growth of uninfected CEM cells. The method, boiled down: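 Five concentrations of each compound were applied to infected and uninfected human CEM cells. Protection from HIV-1 was judged from growth measured with a soluble formazan assay.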

Each structure is given as a SMILES string. Active and inactive are the calls of the source.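 How the source made its calls: active means compounds giving half or more protection of infected cells from virus-caused growth loss, again on retest; inactive means the rest.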 Where a SMILES comes first, the peptide text is derived from it. [ ]: non-standard residue; d: D form. The star is where a group is joined. Ac5c = NC1(C(=O)O)CCCC1; Boc = CC(C)(C)OC(=O)*; tBu = CC(C)(C)* Bounds are passed on as bounds.

As for `CC(OC(C)(C)C)C(NC(=O)C(CCCCNC(=O)OC(C)(C)C)NC(=O)C(Cc1c[nH]c2ccccc12)NC(=O)C(N)Cc1ccccc1)C(=O)NC(Cc1ccccc1)C(=O)NC1(C(=O)O)CCCC1` (stereo not given) (H-FWK(Boc)T(tBu)F[Ac5c]-OH; configuration not given here), the EC50 is 97.7 µM and the IC50 was over 100 µM.
For `O=c1ccnc2ccc3n[nH][nH]c3c12`, the result was inactive.
Take `COc1cc2c(cc1OC)C(=O)N1CCCC1CS2` (stereo not given): the EC50 was over 200 µM and the IC50 is over 200 µM.
Consider `CCOC(=O)NN(C(=O)OCC)C(C(=O)C1=CCCCC1)N(NC(=O)OCC)C(=O)OCC`, for which the EC50 was over 200 µM and the IC50 was over 200 µM.
As to `N[C@@H](CSSCCO)C(=O)O`, the EC50 was over 200 µM and the IC50 is over 200 µM.
On to `O=[N+]([O-])C(=C1NCCN1)/C(Cl)=C(\Cl)Br`, for which the EC50 is over 200 µM and the 50% inhibitory concentration (IC50) came out at 16.6 µM.
As for `NC1=NCC(CN2CCOCC2)O1` (stereo not given), the EC50 is over 200 µM and the 50% inhibitory concentration (IC50) is over 200 µM.
Turning to `O=C(Nc1ccc(CCC2=NCCCN2)cc1)c1ccc(C(=O)Nc2ccc(CCC3=NCCCN3)cc2)cc1`, the EC50 was 42.7 µM and the IC50 was 158 µM.
Take `Nc1cc(N2CCOCC2)nc(=O)n1-c1ccc(Cl)cc1`: the EC50 is over 200 µM and the IC50 is over 200 µM.
For `O=C(O)c1cc2ccccc2c(I)c1O`, the EC50 was over 200 µM and the IC50 stood at 105 µM.
Regarding `CC(C)CC(NC(=O)C(O)C(N)Cc1ccccc1)C(=O)O` (stereo not given), the EC50 was over 17 µM and the IC50 is over 17 µM.
With `C[C@@H]1CC/C=C(/[Si](C)(C)C)C[C@H](C)O1`, the EC50 is over 1170 µM and the IC50 was over 1170 µM.
As for `Nc1nc(Cl)c(C=O)c(NCC2(CO)CC(CCc3ccccc3)C2)n1` (stereo not given), the EC50 is over 200 µM and the IC50 was determined as 3.98 µM.
In the case of `O=C(O)CC/C(=N\Nc1nsc2ccccc12)c1ccc(Cl)cc1`, the EC50 was over 10.5 µM and the IC50 worked out at 6.76 µM.
Regarding `CCCC[n+]1ccn(-c2nc3ccccc3n2C)c1`, the result was inactive.
In the case of `CC1(C)C2CCC13CS(=O)(=O)N1O[C@]13C(=O)O2` (stereo not given in full), the EC50 was over 195 µM and the IC50 is over 195 µM.
`COc1ccc(/C=C2\SC(=S)N(/C=C(/C#N)C(=O)c3ccc4ccccc4c3)C2=O)cc1OC`: the EC50 was over 200 µM and the IC50 was 11.7 µM.
For `CC1=C(N2CC2)C(=O)c2nc3n(c2C1=O)CCC3OC(=O)CCl` (stereo not given) the same measures were over 200 µM and 0.692 µM.
In the case of `CCOC(=O)c1cc2c(cn1)[nH]c1cccc(N)c12`, the EC50 is over 263 µM and the IC50 is over 263 µM.
In the case of `NNC(=O)CC(=O)Nc1ccc(C(=O)O)cc1`, the EC50 was over 200 µM and the IC50 was over 200 µM.
For `COc1cc(/C=C2\C(=O)N(c3cccc([N+](=O)[O-])c3)C(c3ccccc3)S2(=O)=O)cc(OC)c1OC` (stereo not given), the result was inactive.
In the case of `CC1COS(=O)(=O)CS(=O)(=O)O1` (stereo not given), the EC50 was over 1150 µM and the IC50 was over 1150 µM.
Regarding `CCCCCC(/C=N/Nc1ccccc1)C(O)(C(F)(F)F)C(F)(F)F` (stereo not given), the EC50 is over 200 µM and the IC50 is 105 µM.
The matching figures for `O=[N+]([O-])c1ccc(/C=N/Nc2nnc3c4ccccc4c4ncccc4c3n2)o1`: over 100 µM and over 100 µM.
As for `NC1=NC2(O)c3ccccc3C(=O)C2(O)N1` (stereo not given), the EC50 is over 45.7 µM and the IC50 was 28.8 µM.
Turning to `Cc1ccccc1NC(=O)/C(=N/NC(=O)CC#N)C1C(=O)N(c2ccccc2)N=C1N` (stereo not given), the EC50 is over 12.6 µM and the IC50 was over 12.6 µM.
Consider `CS1(C)=NC(=O)C2=C(N=1)c1ccccc1S2(=O)=O`, for which the EC50 is over 47.9 µM and the IC50 is over 47.9 µM.
Regarding `O=C1NNC=Nc2ccc(cc2)S(=O)(=O)c2ccc(cc2)N=CNNC1=O`, the EC50 was over 224 µM and the IC50 was 162 µM.
Turning to `CCOC(=O)CN=C1Nc2ccccc2C(=O)N2CSCC12` (stereo not given), the EC50 is over 200 µM and the IC50 is 158 µM.
As for `CC(NC(=O)OCc1ccccc1)NC(=O)C(CC(=O)OC(C)(C)C)NC(=O)OC(C)(C)C` (stereo not given), the EC50 is over 200 µM and the IC50 is over 200 µM.
As to `COc1ccc2c3c([nH]c2c1[N+](=O)[O-])C(C)N(C)CC3` (stereo not given), the outcome was inactive.
In the case of `O=C(/C=C/C(=O)c1cccs1)c1cccs1`, the EC50 was over 20 µM and the IC50 stood at 1.1 µM.
Regarding `COc1cc2c[n+](C)c3c4cc5c(cc4ccc3c2cc1OC)OCO5`, the EC50 is over 17.8 µM and the IC50 came to 0.437 µM.
Consider `OCC1C(O)C(O)[C@@H]2SCCN12` (stereo not given in full), for which the EC50 was over 200 µM and the IC50 was over 200 µM.
As to `Cc1cc(C2(c3cc(C)c(O)c4ncccc34)OC(=O)c3ccccc32)c2cccnc2c1O`, the EC50 was over 2 µM and the IC50 worked out at 0.102 µM.
For `CCCCCCCCCCCCSSC(=S)OC(C)C` the same measures were over 200 µM and over 200 µM.
The matching figures for `O=C1CCC2(c3ccc(Cl)cc3)SCCN12` (stereo not given): over 200 µM and 145 µM.
On to `CC1OC(n2cnc3c(N)nc(Cl)nc32)C(C)(O)C1O` (stereo not given), for which the result was inactive.
Regarding `O=C(O)CC/C(=N\Nc1nsc2ccccc12)c1ccccc1`, the EC50 is over 11.5 µM and the IC50 stood at 8.13 µM.
For the compound `CC(C)CC[CH2][Pb]([CH2]CCC(C)C)([CH2]CCC(C)C)[O]C(=O)C(Cl)(Cl)Cl`, the EC50 was over 200 µM and the IC50 is 3.09 µM.
For `O=C1CCCC(C(Sc2ccccc2)(Sc2ccccc2)Sc2ccccc2)C1` (stereo not given) the same measures were over 200 µM and 12 µM.
Turning to `CCOC(=O)c1c(Sc2ccc([N+](=O)[O-])cc2[N+](=O)[O-])nc2c3ccccc3ccn12`, the EC50 was over 200 µM and the half-inhibitory concentration (IC50) is over 200 µM.
In the case of `COC1/C=C/OC2(C)Oc3c(C)c(O)c4c(O)c(c(/C=N/N(C)C(C)C(O)c5ccccc5)c(O)c4c3C2=O)NC(=O)C(C)=C/C=C/C(C)C(O)C(C)C(O)C(C)C(OC(C)=O)C1C` (stereo not given), the EC50 was over 200 µM and the IC50 turned out to be 9.55 µM.
The matching figures for `Nc1ccc(C(=O)NN2C(=O)C(Cl)C2c2ccccc2O)cc1` (stereo not given): over 200 µM and 29.5 µM.
As for `c1ccc(N2N=NC3CCCC32)cc1` (stereo not given), the EC50 is over 200 µM and the IC50 was 95.5 µM.
In the case of `Cc1cc(C)c(NS(=O)c2ccc(Cl)cc2)c(C)c1` (stereo not given), the EC50 was over 33.9 µM and the IC50 was over 33.9 µM.
Turning to `Cn1c2ccccc2c(=O)c2c(O)cc3c(c21)C1OCC(C)(O)C1O3` (stereo not given), the EC50 was over 200 µM and the IC50 came to 33.9 µM.
In the case of `CN1C(=O)CCC2[C@@H]3CC=C4C[C@@H](O)CC[C@]4(C)C3CC[C@@]21C` (stereo not given in full), the result was inactive.
As to `CC(C)(C)OC(=O)NCC(=O)NC1C/C(=N\O)c2sccc21` (stereo not given), the EC50 was over 200 µM and the IC50 is over 200 µM.
As for `OCC1OC(O)C(N=C/C=C/c2ccccc2)C(O)C1O` (stereo not given), the EC50 was over 200 µM and the IC50 worked out at 22.9 µM.
With `COc1ccc2cc(C(=O)NCCCNC(=O)c3ccc4c(OC)c(OC)ccc4c3)ccc2c1OC`, the EC50 was over 200 µM and the IC50 is over 200 µM.
With `CNCCN=c1ccc2c3c1c(O)c1c(O)ccc(=O)c1c3[nH]n2CCNCCO`, the EC50 is over 112 µM and the IC50 amounted to 0.347 µM.
In the case of `O=C(Nc1ccc(S(=O)(=O)Nc2ncccn2)cc1)c1ccc(C(=O)Nc2ccc(S(=O)(=O)Nc3ncccn3)cc2)cc1`, the EC50 was over 200 µM and the IC50 was over 200 µM.
Consider `CC(C)c1cc2c(O)c(c1)Cc1cc(C(C)C)cc(c1O)Cc1cc(C(C)C)cc(c1O)Cc1cc(C(C)C)cc(c1O)Cc1cc(C(C)C)cc(c1O)Cc1cc(C(C)C)cc(c1O)C2`, for which the EC50 was over 14.5 µM and the IC50 is over 14.5 µM.
On to `O=C1C2CCCCC2C(=O)N1n1c(-c2ccccc2)n[nH]c1=O` (stereo not given), for which the EC50 is over 200 µM and the IC50 was over 200 µM.
As to `CC(O)C(C(=O)O)N(CC1(O)OCC(O)C(O)C1O)N=O` (stereo not given), the result was inactive.
Consider `O=C1NC(CSSCC2NC(=O)N(c3ccccc3)C2=O)C(=O)N1c1ccccc1` (stereo not given), for which the EC50 is over 200 µM and the concentration for half-maximal inhibition (IC50) stood at 1.12 µM.
The matching figures for `O=[N+]([O-])c1ccc(N/N=C/C(c2ccccc2)c2ccsc2)c([N+](=O)[O-])c1` (stereo not given): over 200 µM and 19.5 µM.
As for `CCN(CC(COc1ccc2c(c1)[n+]([O-])nc(N)[n+]2[O-])OC(C)=O)C(C)=O` (stereo not given), the EC50 was over 200 µM and the IC50 turned out to be 14.8 µM.
As to `NC(=O)CCNC(=O)c1ccccc1SC(=O)CCCC[n+]1ccccc1`, the EC50 is 1.95 µM and the IC50 stood at 174 µM.
As to `O=C1NC(=S)N/C1=C\c1ccco1`, the EC50 is over 200 µM and the IC50 amounted to 105 µM.
The matching figures for `CC(=O)Oc1c2c(c(CC=C(C)C)c3c1C(=O)C1=C[C@@H]4CC5C(C)(C)OC(C/C=C(/C)C(=O)O)(C4=O)[C@@]15O3)OC(C)(CCC=C(C)C)C=C2` (stereo not given in full): over 2 µM and 0.324 µM.
With `Cc1cc([N+](=O)[O-])ccc1Sc1c2ccccc2nc2ccccc12`, the EC50 was over 20.9 µM and the IC50 was over 20.9 µM.
With `CCOC(=O)c1nc2ccc(C(F)(F)F)cc2nc1Oc1ccc(F)cc1`, the EC50 was over 200 µM and the IC50 was over 200 µM.
For `N/C(=N/O)c1nsnc1/C(N)=N\O`, the EC50 is over 200 µM and the half-maximal inhibitory concentration (IC50) was over 200 µM.
Turning to `O=C1CCC[C@H]2O[C@@H](COCc3ccccc3)C[C@@H]12`, the EC50 is over 200 µM and the concentration for half-maximal inhibition (IC50) came to 151 µM.
On to `O=C(Nc1ccc(C2=NCCN2)cc1)c1ccc(C(=O)Nc2ccc(C3=NCCN3)cc2)c(Br)c1`, for which the EC50 is 8.32 µM and the IC50 was 20.9 µM.
Take `CCCNC(=O)c1nc(SC)sc1NC(=O)c1ccc(OC)cc1`: the EC50 was over 200 µM and the IC50 is over 200 µM.
On to `CC1(C)CCNc2ccccc2S1`, for which the EC50 is over 229 µM and the IC50 was over 229 µM.
As to `CC(=O)N(/N=C1\CC(c2ccccc2)Oc2ccccc21)C(C)=O` (stereo not given), the EC50 is over 200 µM and the IC50 was determined as 102 µM.
With `N#CC1CCCC2SC(F)(F)C(F)(F)C12` (stereo not given), the EC50 is over 200 µM and the concentration for half-maximal inhibition (IC50) amounted to 33.1 µM.
